The results in this text go back to patent US20080015386A1, “Crystal of L-Ornithine-Citric Acid Salt” (KYOWA HAKKO KOGYO CO., LTD., priority 2004, published 2008).

For the data set the following is noted: 25° C., relative humidity 75%, weight change measured until day 7; numerical values only in FIG. 1.

Method: A saturated aqueous solution of sodium chloride (approximately 200 mL) was allowed to stand in a plastic desiccator at 25° C. for 24 hours (relative humidity was adjusted to 75%). […] The weighing vessel was allowed to stand in the desiccator with the humidity adjusted, and the weight change of the weighing vessel was measured over the course of time.
The hygroscopicity (hygroscopic degree) was calculated using the following formula (1) on the basis of the weight change at each measuring time. The measurement of the weight change of the weighing vessel was continued until day 7.
Hygroscopic rate (%)=W3−W2/W2−W1×100 (1)
W1=Weight (g) of a weighing vessel
W2=Weight (g) of a weighing vessel filled with crystals before the test
W3=Weight (g) of a weighing vessel filled with crystals after the test

Take `NCCC[C@H](N)C(=O)O.NCCC[C@H](N)C(=O)O.O=C(O)CC(O)(CC(=O)O)C(=O)O` [Example 1, L-ornithine-½ citric acid salt]: the “Hygroscopicity (hygroscopic rate)” value is recorded as “did not show notable hygroscopicity”.
